{"source": "patent US11939402B2", "about": "“Antifungal peptides, compounds including the same, and methods of use thereof” (priority 2022, dated 2024)", "key": {"[1]": {"tested_on": "C. neoformans wild type strain H99", "assay": "microbe, parasite or virus in culture", "type": "cell-based, Cryptococcus neoformans", "conditions": "wild-type H99, alone, read at 24 and 48 hours, 37° C.", "experimental": "The assays followed standard CLSI protocol for broth microdilution assays using yeasts.(32) Microbes were passaged in YPD media at 37° C. with mixing for 2 days before harvesting with an inoculation loop to prepare monocultures on Sabouraud Dextrose Agar (SDA) plates. Monocultures on SDA plates were incubated for 2 days at 37° C. before harvesting cells for microdilution assays. RPMI media (100 μL) was charged to each of the 96 wells in a 96 well plate, with an additional 100 μL in the first column. […] The 100 μL was serially diluted by a factor of 2 from the first column to the 11th column. Microbe inoculant was then prepared. An inoculation loop was used to transfer 1-3 colonies of cells to 1 mL phosphate buffer solution (PBS). The PBS and microbe solution was made uniform by vortex mixing. Cell concentration was computed by comparing the absorbance at 530 nm to 1× McFarland standard solution and multiplying the resulting ratio by 10^7 cell/mL conversion factor. Plate inoculant was prepared by diluting the PBS microbe solution to 5000 cell/mL, in RPMI media. A 100 μL aliquot of cells was transferred to each of the wells on the plate other than column 11 for the no growth control. The operating volume was 200 μL, with 500 CFU per well for a final concentration of 2.5*10^3 cells/mL."}, "[2]": {"tested_on": "C. neoformans cdc50Δ mutant strain", "type": "cell-based, Cryptococcus neoformans", "conditions": "alone", "experimental": "The assays followed standard CLSI protocol for broth microdilution assays using yeasts.(32) Microbes were passaged in YPD media at 37° C. with mixing for 2 days before harvesting with an inoculation loop to prepare monocultures on Sabouraud Dextrose Agar (SDA) plates. Monocultures on SDA plates were incubated for 2 days at 37° C. before harvesting cells for microdilution assays. RPMI media (100 μL) was charged to each of the 96 wells in a 96 well plate, with an additional 100 μL in the first column. Peptide-DMSO solution (4 μL) at 12.8 mg/mL was charged to each of the wells in the first column. The 100 μL was serially diluted by a factor of 2 from the first column to the 11th column. Microbe inoculant was then prepared. An inoculation loop was used to transfer 1-3 colonies of cells to 1 mL phosphate buffer solution (PBS). The PBS and microbe solution was made uniform by vortex mixing. Cell concentration was computed by comparing the absorbance at 530 nm to 1× McFarland standard solution and multiplying the resulting ratio by 10^7 cell/mL conversion factor. Plate inoculant was prepared by diluting the PBS microbe solution to 5000 cell/mL, in RPMI media. A 100 μL aliquot of cells was transferred to each of the wells on the plate other than column 11 for the no growth control. The operating volume was 200 μL, with 500 CFU per well for a final concentration of 2.5*10^3 cells/mL."}, "[3]": {"tested_on": "C. neoformans wild type strain H99", "conditions": "earlier mutation study; cited from earlier work"}, "[4]": {"tested_on": "C. neoformans cdc50Δ mutant strain", "conditions": "earlier mutation study / literature; cited from earlier work"}, "[5]": {"tested_on": "C. neoformans cdc50Δ mutant strain", "type": "cell-based, Cryptococcus neoformans", "conditions": "concentration of the peptide in combination with caspofungin; ΔCDC50", "experimental": "The Fractional Inhibitory Concentration Index were calculated as follows: […]"}, "C. neoformans cells": {"tested_on": "C. neoformans cells", "assay": "AF350-Annexin V / propidium iodine flow cytometry assay (exofacial phosphatidylserine)", "type": "cell-based, Cryptococcus neoformans", "conditions": "0.128 mg/mL peptide, 20 minutes at 25° C.; control 0.2±0.1%", "experimental": "Stock microbes were defrosted from the −80° C. freezer and were passed twice for 48 hours each in YPD media. The YPD media was removed by spinning down and the supernatant was decanted. Pelletized cells were resuspended in 1 mL PBS media and washed for 5 minutes with incubation at 25° C. and 250 RPM. Washed cells were spun down again and suspended in 1 mL of PBS solution. cells were diluted 20-fold into 1 mL fungal working solution in an eppendorf. Cell concentration was quantified via comparison to 1× McFarlain's standard on a plate reader using the absorbance value at 530 nm. An aliquot of 1*10^6 cells in 100 μL was created (1*10^7 cell/mL). […] The cells were incubated for 20 minutes at 25° C. and 250 RPM. Baseline and experimental samples were prepared in triplicate. Cells were stained using an operating concentration of 0.001 mg/mL Propidium Iodine (PI) and a 40-fold dilution of AlexaFluor 350 labelled annexin V as per manufactures instructions. After staining the cells, samples were spun down and supernatant decanted. Cells were then fixed in 4% formaldehyde for 5 minutes. Fixed cells were spun down and supernatant decanted and resuspended in 400 μL 1% formaldehyde for flowcytometry. Samples were collected at a slow flow rate on a MACS Quant 10 device (Miltenyi Biotech, Auburn, CA) with 20,000 events collected per injection.\nIt was sought to determine whether the activities of the peptides were related to the lipid-flipping activity of the P4-ATPase. […] The intensity of the AF350-annexin V signal corresponds to concentration of PS on the exofacial side of the membrane. The propidium iodine signal corresponds to cell viability.\nSingle cells were first selected and gated based on morphology to ensure homogeneity among the cell population (4A, 4B). Cells with low propidium iodine intensity (PI-A<9 RU) and high AF350-annexin V intensity (Annexin V-A>9 RU) (4C, 4D) were examined. Under these gating parameters there should be, respectively, low non-specific cell death and high exofacial PS."}, "C. neoformans H99": {"tested_on": "C. neoformans H99", "assay": "SDS and plate spotting assay", "type": "cell-based, Cryptococcus neoformans", "conditions": "H99 pre-treated with peptide at 128 for one hour; versus untreated or DMSO controls", "procedure": "To test cell integrity, C. neoformans strains from 3 ml YPD overnight cultures were washed, resuspended, and serially diluted (1:10) in dH2O and spotted (5 μl) on YPD agar plates or YPD agar plates containing 0.03% SDS and incubated for 2 days at 30° C. and 37° C.\nOf each strain, yeast cells were inoculated into liquid YPD with 128 μg/ml or 64 μg/ml peptide and co-incubated for 1 h at 30° C. And then, ten-fold serial dilutions were prepared, and 5 μl of each was spotted on YPD and YPD agar plates containing 0.03% SDS. The results were photographed after a 48 h incubation. Their growth was determined by serial dilutions and the fungal colonies were assessed by CFU numbers.\nBriefly, cultures of C. neoformans were grown in YPD and then spotted on YPD plates containing 0.03% SDS."}, "[6]": {"tested_on": "C. neoformans wild type strain H99", "procedure": "Microbes were prepared in the same manner as the MIC assay. […] 100 μL of RPMI media was added to the first 8 wells in the first row. […] The 100 μL of media with drug was serially diluted from the first row to the final row. […] Column 11 was the no growth control, and 12 was the no drug control. The plate was inoculated with microbes in the same manner as the MIC assay. Again, 200 uL was the operating volume, 500 CFU per well, 2.5*10^3 cell/mL. Plates were incubated for 48 hours at 37° C. and read thereafter. The Fractional Inhibitory Concentration Index were calculated as follows:\nWhere the MICA and MICB are the MIC values of drugs A and B alone and FICA and FICB are the Fractional Inhibitory concentrations of drugs A and B in the presence of each other, respectively."}, "[7]": {"tested_on": "human red blood cells (RBCs)", "conditions": "1 hour 37° C.; relative to Triton X-100 control", "procedure": "Hemolysis assays were preformed using human red blood cells (RBCs), which were provided by Interstate Blood Bank (Philadelphia, PA) and stored immediately at 4° C. upon arrival. […] Free heme was extracted from stored RBCs washing in PBS with gentle centrifugation at 1000 RPM for 5 minutes. Washed cells resuspended to 4 mL in PBS and counted using a hemocytometer. […] Red blood cells were adjusted to 5*10^8 cells/mL and 50 uL was added to each of the wells. Operating conditions were 100 μL and 2.5*10^8 cell/mL. The positive control used as 2 μL of 1% Triton X-100. The plate was incubated at 37° C. for 1 hour. The resulting plate was spun down at 1000 RPM for 5 minutes. 20 μL supernatant was transferred to 80 μL PBS in a fresh 96 well plate for analysis (operating volume 100 μL.) A Spectra Max 340 plate reader (Molecular Devices, Sunnyvale, CA) was used to measure the absorbance of the analysis plate at 410 nm. The scans were run in triplicate. Averages and standard deviations between scans and replicates were computed. The negative control was subtracted from all the data points. The resulting corrected data was normalized by the corrected positive control."}}, "note": "Where a SMILES comes first, the peptide text is derived from it. The star is where a group is joined. Myristoyl = CCCCCCCCCCCCCC(=O)*"}
{"smiles": "CC[C@H](C)C[C@H](C)CCCCCCCCC(=O)N[C@H]1C[C@@H](O)[C@@H](NCCN)NC(=O)[C@@H]2[C@@H](O)CCN2C(=O)[C@H]([C@H](O)CCN)NC(=O)[C@H]([C@H](O)[C@@H](O)c2ccc(O)cc2)NC(=O)[C@@H]2C[C@@H](O)CN2C(=O)[C@H]([C@@H](C)O)NC1=O", "note": "[Caspofungin, reference compound]", "values": [{"measurement": "MIC", "setting": "[1]; Cryptococcus neoformans, read-out: MIC ug/mL H99", "result": 16, "unit": "µg/mL"}, {"measurement": "MIC ug/mL ΔCDC50", "setting": "[2]", "result": 4, "unit": "µg/mL"}, {"measurement": "MIC of caspofungin in wild-type strain H99", "setting": "[3]", "result": 16, "unit": "µg/mL"}, {"measurement": "MIC of caspofungin in cdc50Δ", "setting": "[4]", "result": 4, "unit": "µg/mL"}]}
{"smiles": "CCCCCCCCCCCCCC(=O)N[C@@H](Cc1c[nH]c2ccccc12)C(=O)NCC(=O)NCC(=O)N[C@H](C(=O)N[C@@H](CCCCN)C(=O)N[C@@H](CCCCN)C(=O)N[C@@H](CC(N)=O)C(=O)N[C@@H](Cc1ccc(O)cc1)C(=O)N[C@@H](C)C(=O)O)[C@@H](C)CC", "note": "[AW9-Ma] (Myristoyl-WGGIKKNYA-OH)", "values": [{"measurement": "MIC ug/mL H99", "setting": "[1]", "result": 64, "unit": "µg/mL"}, {"measurement": "MIC ug/mL ΔCDC50", "setting": "[2]", "result": 2, "unit": "µg/mL"}, {"measurement": "FIC ug/mL ΔCDC50 Peptide", "setting": "[5]", "result": 0.125, "unit": "µg/mL"}, {"measurement": "percentage of cells with low propidium iodine intensity (PI-A<9 RU) and high AF350-annexin V intensity (Annexin V-A>9 RU)", "setting": "C. neoformans cells", "result": "67.6%±2.3"}, {"measurement": "growth (colony forming units) on agar medium with 0.03% SDS", "setting": "C. neoformans H99", "result": "significantly reduced growth"}, {"measurement": "MIC of caspofungin in the presence of the AW9-Ma peptide", "setting": "[6]; C. neoformans wild type", "result": 4, "unit": "µg/mL"}, {"measurement": "FIC ug/mL H99 Peptide", "setting": "[6]; concentration of the peptide in combination with caspofungin, H99", "result": 16, "unit": "µg/mL"}, {"measurement": "hemolysis of human RBC", "setting": "[7]", "result": "low amounts of hemolysis"}]}
